Measurements as given in patent publication US20220226270A1, “VERY-LONG-CHAIN POLYUNSATURATED FATTY ACIDS, ELOVANOID HYDROXYLATED DERIVATIVES, AND METHODS OF USE” (Board of Supervisors of Louisiana State University and …, priority 2019, published 2022).

Legend:
ARPE-19 cells = test: UOS-induced apoptosis in ARPE-19 cells (Hoechst-positive pyknotic cells); assay type: cell-based, human; conditions: for UOS-induced apoptotic cell death, concentration-dependent: 50-500 nM (FIG. 10G); for concentration of highest inhibition of UOS-induced apoptosis / concentration of lowest inhibition of UOS-induced apoptosis: tested 50-500 nM; for UOS-induced apoptosis: 200 nM (FIG. 10C); for protection against UOS: free fatty acids (FIGS. 7A and 7B)
Experimental: (§1) ARPE19 cells at 75-80% confluence (72 h growth in DMEM/F12+10% FBS) in 6-well plates were serum-starved for 8 h before exposure. The serum-starved cells were treated with TNF-α (Sigma-Aldrich, St. Louis, Mo.) (10 ng/ml) and H2O2 (600 μM) to induce oxidative stress and challenged with increasing concentrations (50-500 nM) of VLC-PUFA (C32:6n3 and C34:6n3) simultaneously with oxidative stress for 16 h (apoptosis) and 6 h (Western-blot) before detection of apoptosis and harvesting for protein analysis. In some experiments, DHA at a concentration of 100 nM and 15-LOX-1 inhibitor PD146176 at a concentration of 1 μM was added to treat the RPE cells under stress. Cell extracts were made and protein concentrations adjusted by Bio-Rad (Hercules, Calif.) protein reagent and used for Western blot analysis.
To assess cell death, hRPE and ARPE-19 cells were fixed with methanol for 15 mins, washed with 1× PBS then loaded with 2 μM Hoechst dissolved in a Locke's solution (Promega) and incubated for another 15 mins before imaging. Cells were then viewed by using a Zeiss LSM 510 confocal microscope under UV fluorescence. Images were recorded and cell apoptosis was assessed by using an automated unbiased method.

[1] = test system: cerebral cortical mixed neuronal cells; test: NMDA excitotoxicity in cerebral cortical mixed neuronal cultures; assay type: cell-based, rat; conditions: for frequency distribution of pyknotic vs non-pyknotic nuclei (nuclear size peak) after NMDA: 500 nM, NMDA 100 μM 12 h, DIV 12, Hoechst; for synergy with NPD1 in neuroprotection against NMDA excitotoxicity: ELV 200 nM + NPD1 100 nM, NMDA 100 μM, 12 h (FIG. 16A); for NMDA dose-dependent increase of apoptotic nuclei: NMDA 25, 50 or 100 μM; for neuroprotection on addition of MK801 and NPD1 together, versus ELV alone: NMDA excitotoxicity
Excerpt: (§2) Primary cultures of cortical neurons: Primary cultures of cortical and hippocampal neurons were harvested from 18-day-old embryos (E18) taken from timed-pregnant, two-month-old Sprague-Dawley (SD) rats (Charles River Lab., Wilmington, Mass.). Briefly, timed-pregnant SD rats were euthanized and embryos were collected in sterile conditions. Embryonic brains were dissected out by forceps on ice and placed in a petri dish containing ice-cold Hank's Balanced Salt Solution (HBSS) (GIBCO). Meninges were removed under a dissecting microscope and cortical tissues were chopped into small pieces with micro-spring scissors. These tissues were transferred to 15 ml tubes containing trypsin-EDTA (0.025% in HBSS) and DNase I. The tubes were incubated in 37° C. chamber for 15 mins and were agitated every 5 mins. After stopping the trypsinization with 5 ml 10% FBS, these tissues were triturated 15 times with a fire polished Pasteur pipet. Cell clumps were left to settle for 2 mins and the supernatant was transferred to a 15 ml Eppendorf tube. The supernatant was filtered through a 70 μm pore-sized filter (Corning cell strainer) and centrifuged for 5 mins at 1000 rpm. The cells were then resuspended in Neurobasal medium (GIBCO) containing 2% B27 (GIBCO) and 2% N2 (GIBCO) supplements, along with 0.5 mM glutamine, 50 U/ml penicillin/streptomycin.
(§3) Cells were counted using a Neubauer hemocytometer. 1×10^6 cells were seeded on poly-D-lysine-coated 12 well cell culture dish (CORNING) and cultured in incubator (37° C., 5% CO2). Culture medium was first replaced after 24 h, then half of the medium was replaced with fresh medium every three days. As a result, approximately, 90% purity of neurons was obtained as determined by class-III-β tubulin, GFAP and Hoechst 33258 staining. Cells were maintained in culture for about 2 weeks until they were exposed to uncompensated oxidative stress, OGD, or NMDA excitotoxicity.
(§4) After 90 mins of OGD exposure, cells were returned to the original medium (Neurobasal medium (GIBCO) containing 2% B27 (GIBCO) and 2% N2 (GIBCO) supplements, along with 0.5 mM glutamine, 50 U/ml penicillin/streptomycin) and placed in a normoxic chamber (37° C., 5% CO2) for 2 h. Then the medium was changed with medium containing either ELV-N32 or ELV-N34 [500 nM] and maintained in a normoxic chamber (37° C., 5% CO2) for 12 h, after which cells were sampled and assayed for cell viability using different methods as previously described (25-28). Cerebral cortical mixed neuronal cells or hippocampal cells in culture were exposed to either NMDA or uncompensated oxidative stress (UOS) for 12 h by addition of either NMDA (25 μM, 50 μM, or 100 μM) concentration or by the addition of TNFα (10 ng/mL) and H2O2 (50 μM, 100 μM, or 200 μM). Cell viability and neuroprotection in the presence of ELV-N32, ELV-N34, 32:6, or 34:6 were assayed after 12 h.
(§5) Hoechst staining and unbiased image analysis: Cells were washed with 1× Dulbecco's Phosphate Buffered Saline (DPBS) containing no calcium or magnesium (GIBCO) and fixed for 10 mins using ice-cold 4% paraformaldehyde (PFA) followed by 15 mins incubation in 100% methanol. Cells were washed with 1× Phosphate Buffered Saline (PBS) pH 7.4 (GIBCO) and incubated in PBS containing 20 μM Hoechst 33258 (Molecular Probes) for 20 mins. Cells were then washed 3 times with 1× PBS and stored in 1× PBS at 4° C. until they were imaged for microscopy.
(§6) One 4×4 tile mosaic was acquired from the center of each well using a Zeiss 510 Meta laser confocal microscope and LSM 510 Meta software. Images were imported into image analysis software ImageJ (National Institutes of Health, Bethesda, Md.) and batch processed using custom macros. An Otsu auto threshold was applied to each image of Hoechst-stained nuclei, and the area of each detected object was recorded. Objects with areas <10 μm^2 were excluded from analysis. To estimate percentage non-pyknotic nuclei, a size cutoff value was chosen above which objects were assumed to be non-pyknotic. […]

ARPE-19 cells under UOS = test: Western blot of pro-survival and pro-apoptotic proteins in ARPE-19 cells under UOS; assay type: cell-based, human; conditions: for Iduna expression (ELV): 200 nM; for Bcl-2 protein / Bcl-xL protein / Bax protein / Bid protein / Bim protein: Western blot, UOS; for Sirtuin1 (SIRT1) expression (ELV): dose-dependent, 100-200 nM; for Iduna expression (VLC-PUFA): RPE cells under UOS (FIG. 7D); for SIRT1 expression (VLC-PUFA): RPE under UOS (FIG. 7C); for Prohibitin (type-1) expression (VLC-PUFA): concentration-dependent, 100 and 250 nM (FIG. 7J)
Experimental: as §1
Analysis of Proteins: Bcl-2 family proteins, SIRT1 and Proinhibitin (type-1), and Iduna proteins were analyze by Western blot analysis. In brief, 20-25 μg equivalents of each cell extracts were subject to electrophoresis on a 4-12% gel (Promega) at 125 V for 2 h. The proteins were transferred to nitrocellulose membrane by I-blot transfer apparatus. The membranes were subjected to treatment with primary antibodies specific for Bcl-2, Bcl-xL, Bax, Bid, Bim, SIRT1 and Prohibitin (type-1) (Santa Cruz Biotechnology) and Iduna antibody (Neuro-Mab Lab, UCLA, Los Angeles, Calif.) overnight at 4° C. and probed for 45 mins with secondary antibody, goat anti-mouse Ig:horseradish peroxidase, and horseradish peroxidase-conjugated anti-biotin antibody, and then proteins were evaluated by using an ECL kit (Amersham).

[2] = test system: cerebral cortical mixed neuronal cells; test: Uncompensated oxidative stress (TNFα plus H2O2) in cerebral cortical mixed neuronal cultures; assay type: cell-based, rat; conditions: for neuroprotection against uncompensated oxidative stress: 200 nM, 12 h TNFα 10 ng/mL and H2O2 (50, 100 or 200 μM); for UOS dose-dependent increase of apoptotic nuclei: 200 nM (FIG. 16B)
Excerpt: as §2, §3, §4, §5, §6

## CC/C=C\C[C@H](O)\C=C/C=C/C=C/[C@H](O)C/C=C\C/C=C\CCCCCCCCCCCCCCC(=O)OC [ELV-N34-Me, methyl (16Z,19Z,22R,23E,25E,27Z,29S,31Z)-22,29-dihydroxytetratriaconta-16,19,23,25,27,31-hexaenoate]
ARPE-19 cells
  UOS-induced apoptotic cell death, concentration-dependent: attenuated
  concentration of highest inhibition of UOS-induced apoptosis: 500 nM
  concentration of lowest inhibition of UOS-induced apoptosis: 50 nM
[1]
  frequency distribution of pyknotic vs non-pyknotic nuclei (nuclear size peak) after NMDA: positive rightward shift

## CC/C=C\C[C@H](O)\C=C/C=C/C=C/[C@H](O)C/C=C\C/C=C\CCCCCCCCCCCCCCC(=O)[O-].[Na+] [ELV-N34-Na, sodium (16Z,19Z,22R,23E,25E,27Z,29S,31Z)-22,29-dihydroxytetratriaconta-16,19,23,25,27,31-hexaenoate]
ARPE-19 cells
  UOS-induced apoptosis: attenuation of apoptosis
ARPE-19 cells under UOS
  Iduna expression (ELV): enhanced
  Bcl-2 protein: enhanced the abundance
  Bcl-xL protein: enhanced the abundance
  Sirtuin1 (SIRT1) expression (ELV): upregulate
[2]
  neuroprotection against uncompensated oxidative stress: neuroprotection elicited

## CC/C=C\C[C@H](O)\C=C/C=C/C=C/[C@H](O)C/C=C\C/C=C\CCCCCCCCCCCCC(=O)OC [ELV-N32-Me, methyl (14Z,17Z,20R,21E,23E,25Z,27S,29Z)-20,27-dihydroxydotriaconta-14,17,21,23,25,29-hexaenoate]
[1]
  synergy with NPD1 in neuroprotection against NMDA excitotoxicity: showed synergy
  NMDA dose-dependent increase of apoptotic nuclei: compensated for
  neuroprotection on addition of MK801 and NPD1 together, versus ELV alone: improved the neuroprotection
[1]; versus ELV-N32-Na and NPD1 together
  relative potency of combination with NPD1: more potent
[2]
  UOS dose-dependent increase of apoptotic nuclei: counteracted
  neuroprotection against uncompensated oxidative stress: evoked neuroprotection

## CC/C=C\C/C=C\C/C=C\C/C=C\C/C=C\C/C=C\CCCCCCCCCCCCC(=O)O [32:6n3, (14Z,17Z,20Z,23Z,26Z,29Z)-dotriaconta-14,17,20,23,26,29-hexaenoic acid]
ARPE-19 cells
  protection against UOS: elicit protection
ARPE-19 cells under UOS
  Iduna expression (VLC-PUFA): upregulation
  SIRT1 expression (VLC-PUFA): upregulation
  Bax protein: down regulated
  Bcl-2 protein: upregulate
  Bcl-xL protein: upregulate
  Bid protein: down regulated
  Bim protein: down regulated
  Prohibitin (type-1) expression (VLC-PUFA): upregulation
[1]; 250 nM (FIG. 17 graph D)
  NMDA excitotoxicity (precursor, 250 nM): attenuate NMDA excitotoxicity

## CC/C=C\C[C@H](O)\C=C/C=C/C=C/[C@H](O)C/C=C\C/C=C\CCCCCCCCCCCCC(=O)[O-].[Na+] [ELV-N32-Na, sodium (14Z,17Z,20R,21E,23E,25Z,27S,29Z)-20,27-dihydroxydotriaconta-14,17,21,23,25,29-hexaenoate]
ARPE-19 cells
  UOS-induced apoptosis: attenuation of apoptosis
  UOS-induced apoptotic cell death, concentration-dependent: attenuated
  concentration of highest inhibition of UOS-induced apoptosis: 500 nM
  concentration of lowest inhibition of UOS-induced apoptosis: 50 nM
ARPE-19 cells under UOS
  Iduna expression (ELV): enhanced
  Bcl-2 protein: enhanced the abundance
  Bcl-xL protein: enhanced the abundance
  Sirtuin1 (SIRT1) expression (ELV): upregulate
ARPE-19 cells under UOS; UOS RPE cells
  relative potency in upregulating SIRT1: more potent than ELV-N34-Na
[1]
  frequency distribution of pyknotic vs non-pyknotic nuclei (nuclear size peak) after NMDA: positive rightward shift
  synergy with NPD1 in neuroprotection against NMDA excitotoxicity: showed synergy
  NMDA dose-dependent increase of apoptotic nuclei: compensated for
  neuroprotection on addition of MK801 and NPD1 together, versus ELV alone: improved the neuroprotection
[2]
  UOS dose-dependent increase of apoptotic nuclei: counteracted
  neuroprotection against uncompensated oxidative stress: evoked neuroprotection
[2]; listed as ELV-N32 Na
  neuroprotection against uncompensated oxidative stress: neuroprotection elicited

## CC/C=C\C/C=C\C/C=C\C/C=C\C/C=C\C/C=C\CCCCCCCCCCCCCCC(=O)O [34:6n3, (16Z,19Z,22Z,25Z,28Z,31Z)-tetratriaconta-16,19,22,25,28,31-hexaenoic acid]
ARPE-19 cells
  protection against UOS: elicit protection
ARPE-19 cells under UOS
  Iduna expression (VLC-PUFA): upregulation
  SIRT1 expression (VLC-PUFA): upregulation
  Bax protein: down regulated
  Bcl-2 protein: upregulate
  Bcl-xL protein: upregulate
  Bid protein: down regulated
  Bim protein: down regulated
  Prohibitin (type-1) expression (VLC-PUFA): upregulation
[1]; 500 nM (FIG. 16H)
  NMDA receptor-mediated excitotoxicity (precursor, 500 nM): attenuates
